{
  "source": "patent US11946094B2",
  "about": "“Combination therapies and methods of use thereof” (Augusta University Research Institute, Inc., priority 2017, dated 2024)",
  "key": {"OVCAR-8 cells [1]": {"test_system": "OVCAR-8 cells", "experiment": "Drug titration (GI50) with S100A11 siRNA knockdown versus sham control", "type": "cell-based", "settings": "serial dilution of drug, three replicates", "description": "Statistical analyses were performed using the R language and environment for statistical computing (R version 3.3.1; R Foundation for Statistical Computing) and Microsoft Excel. Student's T-test (two-tailed, unpaired) was used to calculate p-values for confirmation of drug effect. GI50 values were calculated using a four-parameter logistic function to obtain a classical “s” curve for drug titrations using SigmaPlot (Systat Software, San Jose, CA). Heatmaps were created using the R package “pheatmap”. Clustering was done with WPGMA hierarchical clustering. QIAGEN's Ingenuity Pathway Analysis (IPA®, QIAGEN Redwood City) was utilized for assessment of network and pathway contributions of top genes identified using the NCI-60 correlations.\nAn important measure of synergism is the dosage reduction of a therapeutic compound by another agent. Titration screening with several compounds was performed to compare growth curves with and without knockdown of S100A11 or KLHL5. […] KLHL5 also was synergistic with other cell cycle inhibitors and PI3K-AKT-mTOR inhibitors. Titration curves and calculation of GI50 were performed for twenty-four compounds."}, "OVCAR-8 cells [2]": {"test_system": "OVCAR-8 cells", "experiment": "Drug-siRNA combination screen: 346-compound anticancer library at 100 nM, CCK-8 viability", "settings": "for synergy / antagonism of drug with gene knockdowns, in words: drug 100 nM, panel of 18 siRNA knockdowns", "experimental": "Comparisons of drug effect were performed using data generated on the same day. A minimum of two replicates was performed with drug library screening and a minimum of three replicates was done for all other tests.\nCombinatorial effects were classified using two measures of combinatorial action: 1) the coefficient of drug interaction (CDI), defined as (VAB/(VA×VB)) and 2) the distance in standard deviation (SD) of VAB−(VA×VB). […] In confirmation studies significance was determined using a Student's T-test (two-tailed, unpaired) with p<0.05 indicating significance.\nTo measure the effect of a gene on drug effect, comparisons were made between high expressers of each gene and the wild type cells exposed to sham reagents.\nIn theory, CDI<1 is indicative of synergy while CDI>1 is indicative of antagonism or additive effect in a multiplicative model."}, "AB1-HA tumor model": {"test_system": "AB1-HA tumor model", "settings": "CTX treatment at Day 9; cited from earlier work"}, "[3]": {"settings": "OVCAR-8, drug 100 nM plus siRNA knockdown of each of 18 genes, distance VAB−VA×VB in SD, single gene contributes at most +5 / −5, negative = synergy, positive = antagonism"}},
  "note": "Where two headings read alike, the source gives them in different places.",
  "data": [
    {"smiles": "Cn1cc(CNCC2CCN(c3ncc(C(=O)NO)cn3)CC2)c2ccccc21", "note": "[JNJ-26481585, Quisinostat]", "values": [
      {"measurement": "dose reduction of GI50 value by S100A11 siRNA versus sham control", "setting": "OVCAR-8 cells [1]", "value": 5.53, "unit": "fold"},
      {"measurement": "Score (sum of observed SD values for 18 genes)", "setting": "OVCAR-8 cells [2]; [3]", "value": "−2.31", "unit": "SD"}
    ]},
    {"smiles": "O=P1(N(CCCl)CCCl)NCCCO1", "note": "(centres unmarked) [Cyclophosphamide]", "values": [
      {"measurement": "cure rate", "setting": "AB1-HA tumor model", "value": 75, "unit": "%"}
    ]},
    {"smiles": "O=C(/C=C/c1cccc(S(=O)(=O)Nc2ccccc2)c1)NO", "note": "[Belinostat]", "values": [
      {"measurement": "dose reduction of GI50 value by S100A11 siRNA versus sham control", "setting": "OVCAR-8 cells [1]", "value": 5.56, "unit": "fold"},
      {"measurement": "Score (sum of observed SD values for 18 genes)", "setting": "OVCAR-8 cells [2]; [3]", "value": "−20.81", "unit": "SD"},
      {"measurement": "synergy / antagonism of drug with gene knockdowns, in words", "setting": "OVCAR-8 cells [2]; OVCAR-8", "value": "mostly synergistic"}
    ]},
    {"smiles": "Nc1ccccc1NC(=O)c1ccc(CNC(=O)OCc2cccnc2)cc1", "note": "[Entinostat]", "values": [
      {"measurement": "Score (sum of observed SD values for 18 genes)", "setting": "OVCAR-8 cells [2]; [3]", "value": 12.38, "unit": "SD"},
      {"measurement": "synergy / antagonism of drug with gene knockdowns, in words", "setting": "OVCAR-8 cells [2]; OVCAR-8", "value": "frequently antagonized by knockdown of specific genes"}
    ]},
    {"smiles": "Cc1cc2c(F)c(Oc3ncnn4cc(OC[C@@H](C)O)c(C)c34)ccc2[nH]1", "note": "[Brivanib]", "values": [
      {"measurement": "Score (sum of observed SD values for 18 genes)", "setting": "OVCAR-8 cells [2]; [3]", "value": "−14.38", "unit": "SD"}
    ]},
    {"smiles": "S=C(NCc1ccc2c(c1)OCO2)N1CCN(c2ncnc3c2oc2ccccc23)CC1", "note": "[Amuvatinib]", "values": [
      {"measurement": "Score (sum of observed SD values for 18 genes)", "setting": "OVCAR-8 cells [2]; [3]", "value": 12.37, "unit": "SD"}
    ]},
    {"smiles": "CNC(=O)c1ccc(N2C(=S)N(c3ccc(C#N)c(C(F)(F)F)c3)C(=O)C2(C)C)cc1F", "note": "[Enzalutamid]", "values": [
      {"measurement": "Score (sum of observed SD values for 18 genes)", "setting": "OVCAR-8 cells [2]", "value": "−1.24", "unit": "SD"}
    ]}
  ]
}
